Source: patent US8455440B2, “Combination anticoagulant therapy with a compound that acts as a factor Xa inhibitor” (Millennium Pharmaceuticals, Inc., priority 2007, dated 2013)

Tests used:
[1] = tested on: ferric chloride induced thrombosis in rat carotid artery; test: Ferric chloride induced thrombosis in rat carotid artery; assay type: in vivo; settings: for % Did not occlude (inhibition of rat thrombosis) / Number of animals without occlusion: intravenous infusion; for Number of animals without occlusion: 10 animals; for time to occlusion: animals that had vessel occlusion
factor Xa = molecular target: T1, factor Xa (Bos taurus, UniProt P00743); test: Anti-factor Xa unit assay; assay type: biochemical, human; settings: total knee replacement patients, 15 mg or 40 mg oral twice a day
T1 construct: purchased Diapharma COATEST LMW Heparin
Protocol: The anti-factor Xa (anti-fXa) assay was adapted from a commercial kit (Diapharma COATEST LMW Heparin) and modified to a 96-well format. A low molecular weight heparin, dalteparin, included in the kit was used to construct a standard curve according to the manufacture's instruction using pooled platelets poor plasma. All samples and standards were assayed in duplicate. The limit of quantitation was 0.05 U/mL and results below 0.05 U/mL were reported as below the limit of quantitation. The upper limit of measurement for the plate assay was 1.0 U/mL and samples with anti-factor Xa units higher than 1.0 U/mL were re-assayed after dilution. The coefficient of variation (CV) for both standards and clinical samples were 10%.

p-glycoprotein = p-glycoprotein (Homo sapiens, UniProt P08183); test: In vitro evaluations of p-glycoprotein substrate; assay type: in vitro ADME
Interleukin 6 = test: Ex vivo cytokine release in human whole blood: interleukin 6; assay type: cell-based; settings: for fold change of Interleukin 6 release: combination with Aspirin (0 nM = 1)
Protocol: An ex vivo assay system of human cytokine release was used to test whether inhibition of factor Xa should augment the effect of reduction of inflammation elicited by standard anti-inflammatory drugs, such as aspirin.
Following addition of Compound A (50 to 500 nM) to the blood samples, control and treated samples were activated by addition of collagen (Chronolog, 4 μg/mL) and gently rotated at 37° C. for 45 min. At the end of the activation period, blood samples were centrifuged at 13,000 rpm (15,000 g) for 5 min in an Eppendorf 5415G centrifuge. Plasma was removed, treated with protease inhibitor cocktail (Roche) and stored frozen at −80° C. Cytokines released from the blood cells were quantitated in a Multiplexed Biomarker Immunoassay for Luminex Instrumentation (Millipore USA). […] For example, in the plasma samples from six donors, the mean amount of interleukin 4 was 28.4 pg/mL in the untreated control and 26.8 to 29.4 pg/mL in the Compound A treated samples. […] Thus in this ex vivo system Compound A was capable of providing additional beneficial effect over a widely used anti-inflammatory agent.

T1 sequence (P00743 234-492 limits assumed): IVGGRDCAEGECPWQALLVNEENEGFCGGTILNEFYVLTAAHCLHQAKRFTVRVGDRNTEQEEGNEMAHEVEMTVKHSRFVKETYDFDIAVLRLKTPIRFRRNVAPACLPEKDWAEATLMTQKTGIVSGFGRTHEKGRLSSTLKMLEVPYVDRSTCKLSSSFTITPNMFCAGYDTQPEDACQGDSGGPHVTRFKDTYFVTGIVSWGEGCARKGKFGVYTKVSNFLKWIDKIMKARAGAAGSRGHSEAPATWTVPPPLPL
T1 sequence (P00743 41-180 partner limits assumed): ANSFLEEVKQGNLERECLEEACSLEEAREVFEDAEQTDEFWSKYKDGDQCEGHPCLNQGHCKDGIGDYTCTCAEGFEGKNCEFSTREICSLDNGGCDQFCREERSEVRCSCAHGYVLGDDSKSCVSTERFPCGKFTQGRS
Chain of p-glycoprotein (P08183 whole entry): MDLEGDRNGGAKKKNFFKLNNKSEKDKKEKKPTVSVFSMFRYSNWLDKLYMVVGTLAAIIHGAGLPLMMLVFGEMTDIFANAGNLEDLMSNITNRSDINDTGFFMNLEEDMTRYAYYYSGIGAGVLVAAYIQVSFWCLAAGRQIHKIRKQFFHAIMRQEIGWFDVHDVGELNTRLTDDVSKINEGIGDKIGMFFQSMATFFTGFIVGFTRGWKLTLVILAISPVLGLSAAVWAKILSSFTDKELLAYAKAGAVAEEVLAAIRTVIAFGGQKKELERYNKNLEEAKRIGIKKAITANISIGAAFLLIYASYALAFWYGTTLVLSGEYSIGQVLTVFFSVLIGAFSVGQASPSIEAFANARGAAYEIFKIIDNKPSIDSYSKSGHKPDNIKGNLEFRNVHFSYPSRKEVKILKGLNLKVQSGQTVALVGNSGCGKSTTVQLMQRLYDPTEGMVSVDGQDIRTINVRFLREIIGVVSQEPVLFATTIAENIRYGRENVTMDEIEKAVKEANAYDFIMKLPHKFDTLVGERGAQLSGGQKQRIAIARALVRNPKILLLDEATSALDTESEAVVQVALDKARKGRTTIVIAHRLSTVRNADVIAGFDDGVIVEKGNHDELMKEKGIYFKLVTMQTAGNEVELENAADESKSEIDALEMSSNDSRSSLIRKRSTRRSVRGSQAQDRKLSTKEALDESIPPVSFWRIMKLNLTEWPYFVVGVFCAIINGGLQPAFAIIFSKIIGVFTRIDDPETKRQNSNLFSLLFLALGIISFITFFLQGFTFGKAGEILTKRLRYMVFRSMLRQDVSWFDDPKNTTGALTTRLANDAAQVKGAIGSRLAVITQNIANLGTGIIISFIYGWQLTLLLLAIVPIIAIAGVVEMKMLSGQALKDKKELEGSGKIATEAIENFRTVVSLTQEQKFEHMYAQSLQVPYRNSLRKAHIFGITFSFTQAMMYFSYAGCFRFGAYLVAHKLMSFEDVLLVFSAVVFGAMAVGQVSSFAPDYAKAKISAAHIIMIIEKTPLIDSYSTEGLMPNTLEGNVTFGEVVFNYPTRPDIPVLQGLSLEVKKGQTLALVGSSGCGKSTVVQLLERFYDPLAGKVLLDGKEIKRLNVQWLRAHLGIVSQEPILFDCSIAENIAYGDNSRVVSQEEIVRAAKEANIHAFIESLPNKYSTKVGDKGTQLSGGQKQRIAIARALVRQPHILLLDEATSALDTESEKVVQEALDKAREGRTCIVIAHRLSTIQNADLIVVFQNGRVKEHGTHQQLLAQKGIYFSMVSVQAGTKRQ

With `COc1ccc(NC(=O)c2ccc(C(=N)N(C)C)cc2)c(C(=O)Nc2ccc(Cl)cn2)c1` [Compound A, [2-({4-[(dimethylamino)iminomethyl]phenyl}carbonylamino)-5-methoxyphenyl]-N-(5-chloro(2-pyridyl))carboxamide] the “% Did not occlude (inhibition of rat thrombosis)” value ([1]; 0.03 μM Compound A) was 30%, the “Number of animals without occlusion” value ([1]; 0.03 μM Compound A) was 3 and the time to occlusion ([1]; 0.03 μM Compound A) was 27.07. The “% Did not occlude (inhibition of rat thrombosis)” value ([1]; 0.1 μM Compound A) was 60%, the “Number of animals without occlusion” value ([1]; 0.1 μM Compound A) was 6 and the time to occlusion ([1]; 0.1 μM Compound A) was 52.66. For the same compound, the “% Did not occlude (inhibition of rat thrombosis)” value ([1]; 0.3 μM Compound A) was 90%, the “Number of animals without occlusion” value ([1]; 0.3 μM Compound A) was 9 and the time to occlusion ([1]; 0.3 μM Compound A) was 35.78. For the same compound, the “% DNO (inhibition of rat thrombosis)” value ([1]; Compound A 0.03 μM iv infusion, aspirin 3 mg/kg iv bolus, or both) was 30%, the “TTO (Time to occlusion)” value ([1]; average for animals that occluded, Compound A 0.03 μM, aspirin 3 mg/kg, or both) was 27.07 ± 7.36 min and the “DNO (did not occlude)” value ([1]; number of 10 animals, Compound A 0.03 μM iv infusion, aspirin 3 mg/kg iv bolus, or both) was 3. The “effect on anti-factor Xa levels” value (factor Xa) was “dose- and concentration-dependent effect”, the p-glycoprotein substrate (p-glycoprotein) was “substrate of p-glycoprotein” and the “fold change of Interleukin 6 release” value (Interleukin 6; 50 nM Compound A) was 1.01. For the same compound, the “fold change of Interleukin 6 release” value (Interleukin 6; 200 nM Compound A) was 0.96, the “fold change of Interleukin 6 release” value (Interleukin 6; 500 nM Compound A) was 0.87 and the “reduction in the levels of released interleukin 6” value (Interleukin 6; Compound A added to blood samples from donors under aspirin therapy) was 25%. For the same compound, the “further reduction of interleukin 6” value (Interleukin 6; addition of Compound A to whole blood of aspirin treated donors prior to collagen activation) was 16%.
